Test results published in patent US6740760B2, “D-proline derivatives” (Hoffmann-La Roche Inc., priority 1997, dated 2004).

What was measured:
B. fragilis = conditions: disclosed in WO 97/10225; cited from earlier work

| melting point | Structure (SMILES) | antibacterial activity against B. fragilis (B. fragilis) |
| --- | --- | --- |
| 210 to 214 °C | O=C(O)[C@H]1CCCN1C(=O)Cc1ccc(CC(=O)N2CCC[C@@H]2C(=O)O)cc1 |  |
|  | C[C@@H](CS)C(=O)N1CCC[C@@H]1C(=O)O [1-[(R)3-Mercapto-2-methyl-propionyl]-(R)-pyrrolidine-2-carboxylic acid] | antibacterial activity |
|  | C[C@H](CS)C(=O)N1CCC[C@@H]1C(=O)O [1-[(S)3-Mercapto-2-methyl-propionyl]-(R)-pyrrolidine-2-carboxylic acid] | antibacterial activity |
